Results from ChEMBL document CHEMBL4393697, “Lipophilic efficient phenylthiazoles with potent undecaprenyl pyrophosphatase inhibitory activity” (Eur J Med Chem, 2019).
In brackets after ≈: the same amount, converted by molar mass. Activity calls are given as the source filed them. No cut-off for these calls is given here.

What was measured:
Staphylococcus aureus [1] = assay: Antibacterial activity against methicillin resistant Staphylococcus aureus USA400 assessed as reduction in bacterial cell growth incubated for 18 to 20 hrs by broth microdilution method; format: functional
Acinetobacter baumannii [2] = assay: Antibacterial activity against Acinetobacter baumannii ATCC 19606 assessed as reduction in bacterial cell growth incubated for 18 to 20 hrs by broth microdilution method; format: functional
Escherichia coli [3] = assay: Bactericidal activity against Escherichia coli JW55031 harboring deltatolC mutant assessed as reduction in bacterial cell growth incubated for 18 to 20 hrs followed by re-plating on tryptic soy agar plates at 37 degC for 18 hrs by broth microdilution assay; format: functional
Streptococcus pneumoniae [4] = assay: Bactericidal activity against Methicillin resistant Streptococcus pneumoniae ATCC 700677 assessed as reduction in bacterial cell growth incubated for 18 to 20 hrs followed by re-plating on tryptic soy agar plates at 37 degC for 18 hrs by broth microdilution assay; format: functional
Staphylococcus aureus [5] = assay: Bactericidal activity against methicillin-resistant Staphylococcus aureus USA300 assessed as reduction in bacterial cell growth incubated for 18 to 20 hrs followed by re-plating on tryptic soy agar plates at 37 degC for 18 hrs by broth microdilution assay; format: functional
Enterococcus faecium [6] = assay: Antibacterial activity against vancomycin resistant Enterococcus faecium ATCC 700221 assessed as reduction in bacterial cell growth incubated for 18 to 20 hrs by broth microdilution method; format: functional
Listeria monocytogenes [7] = assay: Bactericidal activity against Listeria monocytogenes ATCC 19111 assessed as reduction in bacterial cell growth incubated for 18 to 20 hrs followed by re-plating on tryptic soy agar plates at 37 degC for 18 hrs by broth microdilution assay; format: functional
Escherichia coli [8] = assay: BActericidal activity against Escherichia coli BW25113 assessed as reduction in bacterial cell growth incubated for 18 to 20 hrs followed by re-plating on tryptic soy agar plates at 37 degC for 18 hrs by broth microdilution assay; format: functional
Streptococcus pneumoniae [9] = assay: Antibacterial activity against Cephalosporin resistant Streptococcus pneumoniae ATCC 51916 assessed as reduction in bacterial cell growth incubated for 18 to 20 hrs by broth microdilution method; format: functional
Pseudomonas aeruginosa [10] = assay: Antibacterial activity against Pseudomonas aeruginosa ATCC 15442 assessed as reduction in bacterial cell growth incubated for 18 to 20 hrs by broth microdilution method; format: functional
Pseudomonas aeruginosa [11] = assay: Bactericidal activity against Pseudomonas aeruginosa ATCC 15442 assessed as reduction in bacterial cell growth incubated for 18 to 20 hrs followed by re-plating on tryptic soy agar plates at 37 degC for 18 hrs by broth microdilution assay; format: functional
Klebsiella pneumoniae = assay: Antibacterial activity against Klebsiella pneumoniae BAA-1706 assessed as reduction in bacterial cell growth incubated for 18 to 20 hrs by broth microdilution method; format: functional
[12] = system: Staphylococcus epidermidis; assay: Bactericidal activity against methicillin resistant Staphylococcus epidermidis NRS101 assessed as reduction in bacterial cell growth incubated for 18 to 20 hrs followed by re-plating on tryptic soy agar plates at 37 degC for 18 hrs by broth microdilution assay; format: functional
Staphylococcus aureus [13] = assay: Bactericidal activity against Staphylococcus aureus NRS107 assessed as reduction in bacterial cell growth incubated for 18 to 20 hrs followed by re-plating on tryptic soy agar plates at 37 degC for 18 hrs by broth microdilution assay; format: functional
Staphylococcus aureus [14] = assay: Bactericidal activity against methicillin resistant Staphylococcus aureus NRS119 assessed as reduction in bacterial cell growth incubated for 18 to 20 hrs followed by re-plating on tryptic soy agar plates at 37 degC for 18 hrs by broth microdilution assay; format: functional
Staphylococcus aureus [15] = assay: Bactericidal activity against vancomycin resistant Staphylococcus aureus VRS12 assessed as reduction in bacterial cell growth incubated for 18 to 20 hrs followed by re-plating on tryptic soy agar plates at 37 degC for 18 hrs by broth microdilution assay; format: functional
[16] = system: Staphylococcus epidermidis; assay: Antibacterial activity against methicillin resistant Staphylococcus epidermidis NRS101 assessed as reduction in bacterial cell growth incubated for 18 to 20 hrs by broth microdilution method; format: functional
Staphylococcus aureus [17] = assay: Antibacterial activity against Staphylococcus aureus ATCC 6538 assessed as reduction in bacterial cell growth incubated for 18 to 20 hrs by broth microdilution method; format: functional
Escherichia coli [18] = assay: Antibacterial activity against Escherichia coli JW55031 harboring deltatolC mutant assessed as reduction in bacterial cell growth incubated for 18 to 20 hrs by broth microdilution method; format: functional
Staphylococcus aureus [19] = assay: Bactericidal activity against Staphylococcus aureus ATCC 6538 assessed as reduction in bacterial cell growth incubated for 18 to 20 hrs followed by re-plating on tryptic soy agar plates at 37 degC for 18 hrs by broth microdilution assay; format: functional
Staphylococcus aureus [20] = assay: Antibacterial activity against methicillin-resistant Staphylococcus aureus USA300 assessed as reduction in bacterial cell growth incubated for 18 to 20 hrs by broth microdilution method; format: functional
Staphylococcus aureus [21] = assay: Antibacterial activity against vancomycin resistant Staphylococcus aureus VRS12 assessed as reduction in bacterial cell growth incubated for 18 to 20 hrs by broth microdilution method; format: functional
Escherichia coli [22] = assay: Antibacterial activity against Escherichia coli BW25113 assessed as reduction in bacterial cell growth incubated for 18 to 20 hrs by broth microdilution method; format: functional
Staphylococcus aureus [23] = assay: Antibacterial activity against vancomycin resistant Staphylococcus aureus VRS11a assessed as reduction in bacterial cell growth incubated for 18 to 20 hrs by broth microdilution method; format: functional
Staphylococcus aureus [24] = assay: Antibacterial activity against intracellular methicillin resistant Staphylococcus aureus USA400 infected in mouse J774 cells assessed as log10 reduction of viable bacterial cells incubated for 24 hrs followed by re-plating on tryptic soy agar plates at 37 degC for 18 to 22 hrs by broth microdilution assay; format: functional
[25] = Solubility of compound in PBS after 2 hrs by turbidity based absorbance analysis; format: physicochemical
Listeria monocytogenes [26] = assay: Antibacterial activity against Listeria monocytogenes ATCC 19111 assessed as reduction in bacterial cell growth incubated for 18 to 20 hrs by broth microdilution method; format: functional
Staphylococcus aureus [27] = assay: Antibacterial activity against methicillin resistant Staphylococcus aureus NRS119 assessed as reduction in bacterial cell growth incubated for 18 to 20 hrs by broth microdilution method; format: functional
Streptococcus pneumoniae [28] = assay: Bactericidal activity against Cephalosporin resistant Streptococcus pneumoniae ATCC 51916 assessed as reduction in bacterial cell growth incubated for 18 to 20 hrs followed by re-plating on tryptic soy agar plates at 37 degC for 18 hrs by broth microdilution assay; format: functional
Streptococcus pneumoniae [29] = assay: Antibacterial activity against Methicillin resistant Streptococcus pneumoniae ATCC 700677 assessed as reduction in bacterial cell growth incubated for 18 to 20 hrs by broth microdilution method; format: functional
Staphylococcus aureus [30] = assay: Antibacterial activity against Staphylococcus aureus NRS107 assessed as reduction in bacterial cell growth incubated for 18 to 20 hrs by broth microdilution method; format: functional
Enterococcus faecium [31] = assay: Bactericidal activity against vancomycin resistant Enterococcus faecium ATCC 700221 assessed as reduction in bacterial cell growth incubated for 18 to 20 hrs followed by re-plating on tryptic soy agar plates at 37 degC for 18 hrs by broth microdilution assay; format: functional
Staphylococcus aureus [32] = assay: Antibacterial activity against vancomycin resistant Staphylococcus aureus VRS10 assessed as reduction in bacterial cell growth incubated for 18 to 20 hrs by broth microdilution method; format: functional
Acinetobacter baumannii [33] = assay: Bactericidal activity against Acinetobacter baumannii ATCC 19606 assessed as reduction in bacterial cell growth incubated for 18 to 20 hrs followed by re-plating on tryptic soy agar plates at 37 degC for 18 hrs by broth microdilution assay; format: functional

C/C(=N\NC(=N)N)c1sc(-c2ccc(C#Cc3ccc(C)s3)cc2)nc1C showed an MIC (Staphylococcus aureus [1]) of 2 µg/mL (≈ 5.08 µM), an MIC (Acinetobacter baumannii [2]) of 32 µg/mL (≈ 81.3 µM) and an MBC (Escherichia coli [3]) of 64 µg/mL (≈ 163 µM). It also gave an MBC (Streptococcus pneumoniae [4]) of 32 µg/mL (≈ 81.3 µM), an MBC (Staphylococcus aureus [5]) of 16 µg/mL (≈ 40.7 µM) and an MIC (Enterococcus faecium [6]) of 2 µg/mL (≈ 5.08 µM). The MBC (Listeria monocytogenes [7]) was 32 µg/mL (≈ 81.3 µM), the MBC (Escherichia coli [8]) was > 64 µg/mL and the MIC (Streptococcus pneumoniae [9]) was 8 µg/mL (≈ 20.3 µM). For the same compound, the MIC (Pseudomonas aeruginosa [10]) was > 64 µg/mL, the MBC (Pseudomonas aeruginosa [11]) was > 64 µg/mL and the MIC (Klebsiella pneumoniae) was 32 µg/mL (≈ 81.3 µM). For the same compound, the MBC [12] was 4 µg/mL (≈ 10.2 µM), the MBC (Staphylococcus aureus [13]) was 4 µg/mL (≈ 10.2 µM) and the MBC (Staphylococcus aureus [14]) was 4 µg/mL (≈ 10.2 µM). For the same compound, the MBC (Staphylococcus aureus [15]) was 16 µg/mL (≈ 40.7 µM), the MIC [16] was 4 µg/mL (≈ 10.2 µM) and the MIC (Staphylococcus aureus [17]) was 4 µg/mL (≈ 10.2 µM). The MIC (Escherichia coli [18]) was 32 µg/mL (≈ 81.3 µM), the MBC (Staphylococcus aureus [19]) was 4 µg/mL (≈ 10.2 µM) and the MIC (Staphylococcus aureus [20]) was 8 µg/mL (≈ 20.3 µM). It also gave an MIC (Staphylococcus aureus [21]) of 8 µg/mL (≈ 20.3 µM), an MIC (Escherichia coli [22]) of 64 µg/mL (≈ 163 µM) and an MIC (Staphylococcus aureus [23]) of 4 µg/mL (≈ 10.2 µM). The Activity (Staphylococcus aureus [24]) was 0.21 log10CFU, the solubility kinetic at 2 h [25] was 12 µM (≈ 4.72 µg/mL) and the MIC (Listeria monocytogenes [26]) was 8 µg/mL (≈ 20.3 µM). For the same compound, the MIC (Staphylococcus aureus [27]) was 4 µg/mL (≈ 10.2 µM), the MBC (Streptococcus pneumoniae [28]) was 16 µg/mL (≈ 40.7 µM) and the MIC (Streptococcus pneumoniae [29]) was 8 µg/mL (≈ 20.3 µM). The MIC (Staphylococcus aureus [30]) was 4 µg/mL (≈ 10.2 µM), the MBC (Enterococcus faecium [31]) was 4 µg/mL (≈ 10.2 µM) and the MIC (Staphylococcus aureus [32]) was 4 µg/mL (≈ 10.2 µM). The MBC (Acinetobacter baumannii [33]) was 64 µg/mL (≈ 163 µM).
In the case of C/C(=N\NC(=N)N)c1sc(-c2ccc(C#Cc3ccc(N)cc3)cc2)nc1C, the MIC (Staphylococcus aureus [1]) was 4 µg/mL (≈ 10.3 µM), the MIC (Acinetobacter baumannii [2]) was 64 µg/mL (≈ 165 µM) and the MBC (Escherichia coli [3]) was 16 µg/mL (≈ 41.2 µM). The MBC (Streptococcus pneumoniae [4]) was 32 µg/mL (≈ 82.4 µM), the MBC (Staphylococcus aureus [5]) was 16 µg/mL (≈ 41.2 µM) and the MIC (Enterococcus faecium [6]) was 4 µg/mL (≈ 10.3 µM). For the same compound, the MBC (Listeria monocytogenes [7]) was > 64 µg/mL, the MBC (Escherichia coli [8]) was > 64 µg/mL and the MIC (Streptococcus pneumoniae [9]) was 32 µg/mL (≈ 82.4 µM). The MIC (Pseudomonas aeruginosa [10]) was > 64 µg/mL, the MBC (Pseudomonas aeruginosa [11]) was > 64 µg/mL and the MIC (Klebsiella pneumoniae) was > 64 µg/mL. It also gave an MBC [12] of 2 µg/mL (≈ 5.15 µM), an MBC (Staphylococcus aureus [13]) of 8 µg/mL (≈ 20.6 µM) and an MBC (Staphylococcus aureus [14]) of 16 µg/mL (≈ 41.2 µM). For the same compound, the MBC (Staphylococcus aureus [15]) was 32 µg/mL (≈ 82.4 µM), the MIC [16] was 2 µg/mL (≈ 5.15 µM) and the MIC (Staphylococcus aureus [17]) was 2 µg/mL (≈ 5.15 µM). For the same compound, the MIC (Escherichia coli [18]) was 16 µg/mL (≈ 41.2 µM), the MBC (Staphylococcus aureus [19]) was 4 µg/mL (≈ 10.3 µM) and the MIC (Staphylococcus aureus [20]) was 4 µg/mL (≈ 10.3 µM). For the same compound, the MIC (Staphylococcus aureus [21]) was 16 µg/mL (≈ 41.2 µM), the MIC (Escherichia coli [22]) was > 64 µg/mL and the MIC (Staphylococcus aureus [23]) was 16 µg/mL (≈ 41.2 µM). The Activity call (Staphylococcus aureus [24]) was “inactive”, the solubility kinetic at 2 h [25] was 105 µM (≈ 40.8 µg/mL) and the MIC (Listeria monocytogenes [26]) was 32 µg/mL (≈ 82.4 µM). It also gave an MIC (Staphylococcus aureus [27]) of 8 µg/mL (≈ 20.6 µM), an MBC (Streptococcus pneumoniae [28]) of 32 µg/mL (≈ 82.4 µM) and an MIC (Streptococcus pneumoniae [29]) of 16 µg/mL (≈ 41.2 µM). The MIC (Staphylococcus aureus [30]) was 4 µg/mL (≈ 10.3 µM), the MBC (Enterococcus faecium [31]) was 16 µg/mL (≈ 41.2 µM) and the MIC (Staphylococcus aureus [32]) was 16 µg/mL (≈ 41.2 µM). For the same compound, the MBC (Acinetobacter baumannii [33]) was > 64 µg/mL.
